How the values were obtained:
[1] = in vitro elution of rifampin and minocycline from p22-27.5 polymers with TXA in release media (Example 15); format: physicochemical; conditions: PBS pH 7.4, TXA 0, 0.05 or 5 mg/mL, over 25 hours
Protocol: B1=PBS pH 7.4; B2=PBS, pH 7.4+TXA (0.05 mg/mL); B3=PBS, pH 7.4+TXA (5 mg/mL).

[2] = stability of rifampin and minocycline in PBS with and without tranexamic acid (Example 14); format: physicochemical; conditions: room temperature (about 23 C) and 37 C
[3] = given preoperatively; cited from earlier work
blood = test: time required to induce blood clotting in vitro (Examples 17 and 18); format: biochemical
Protocol: Tests were conducted to compare the time required to induce blood clotting in vitro when different amounts of hemostatic agent is administered in the presence of TYRX (degradable mesh coated with P22-27.5 containing rifampin and minocycline), as shown in FIG. 35.
Tests were conducted to compare the time required for different hemostatic agents to induce blood clotting in vitro versus the time required to induce blood clotting in vitro when no hemostatic agent is administered. In particular, the time required to induce blood clotting was plotted for blood alone, TYRX), Surgicel, TYRX with 1.6 mg of TXA, 1.2 mg of TXA alone and TYRX with 200 mg of TXA. In this example, TYRX refers to a Glycoprene mesh that is coated with P22-27.5 (a polymer in the P22-X family) containing Rifampin and Minocycline.

## CO[C@H]1/C=C/O[C@@]2(C)Oc3c(C)c(O)c4c(O)c(c(/C=N/N5CCN(C)CC5)c(O)c4c3C2=O)NC(=O)/C(C)=C\C=C\[C@H](C)[C@H](O)[C@@H](C)[C@@H](O)[C@@H](C)[C@H](OC(C)=O)[C@@H]1C [rifampin]
[1]
  elution rate from p22-27.5 polymer, effect of TXA in the release media: not affected
[2]
  percentage area in mixtures of rifampin and minocycline in PBS with versus without tranexamic acid: substantially the same

## NC[C@H]1CC[C@H](C(=O)O)CC1 [tranexamic acid]
[3]
  time to reach plasma concentrations: 5 to 15 min
blood; 1.2 mg of TXA alone
  time required to induce blood clotting in vitro: about 19 minutes
blood; 1.6 mg TXA vs 200 mg of TXA, in the presence of TYRX
  Clotting time with higher amounts of TXA: increased

From patent publication US20190358371A1, “HEMOSTATIC DEVICES AND METHODS OF USE” (priority 2016, published 2019)
